Reference: patent US20110130365A1, “Fluorinated Heteroaryls” (priority 2008, published 2011)
Where a name gives a salt, the structure may show the parent alone.

Molecular target: T1, Full-length glucokinase (beta cell isoform) (Homo sapiens, UniProt P35557)
T1 construct: Full-length glucokinase (beta cell isoform) was His-tagged at N-terminus; His tag (N); made in house
T1 sequence (P35557 1-465): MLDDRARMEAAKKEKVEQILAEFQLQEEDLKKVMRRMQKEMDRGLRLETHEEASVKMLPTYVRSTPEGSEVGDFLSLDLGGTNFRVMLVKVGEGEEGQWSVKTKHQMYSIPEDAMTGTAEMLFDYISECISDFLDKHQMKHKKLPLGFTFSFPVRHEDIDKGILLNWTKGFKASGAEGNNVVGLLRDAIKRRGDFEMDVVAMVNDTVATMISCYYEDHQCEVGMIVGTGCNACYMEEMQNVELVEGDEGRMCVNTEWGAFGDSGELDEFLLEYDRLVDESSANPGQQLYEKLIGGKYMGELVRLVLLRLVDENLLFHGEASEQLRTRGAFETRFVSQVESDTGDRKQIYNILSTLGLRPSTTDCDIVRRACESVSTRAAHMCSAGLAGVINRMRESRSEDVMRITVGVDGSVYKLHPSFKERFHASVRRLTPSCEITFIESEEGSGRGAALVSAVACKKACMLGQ
Assay: Glucokinase activation assay (PK/LDH-coupled, NADH depletion at 340 nm)
Format: biochemical
Conditions: 5 mM glucose, 2.5 mM ATP, pH 7.1, room temperature, values given as a range where N>1; for Emax: fitted % max activation, read-out: Maximum Activation
Method: Full-length glucokinase (beta cell isoform) was His-tagged at N-terminus and purified by a Ni column followed by size exclusion chromatography. A 320 mL column was packed in house using Pharmacia Superdex75 preparation grade resin. Glucose was obtained from Calbiochem (San Diego, Calif.) and other reagents were purchased from Sigma (St. Louis, Mo.).
All assays were performed in a Corning 384-well plate using Spectramax PLUS spectrophotometer (Molecular Devices, Sunnyvale, Calif.) at room temperature. The final assay volume was 40 μL. The buffer conditions used in this assay were as follows: 50 mM HEPES, 5 mM glucose, 2.5 mM ATP, 3.5 mM MgCl2, 0.7 mM NADH, 2 mM dithiothreitol, 1 Unit/mL PK/LDH, 0.2 mM phosphoenolpyruvate, and 25 mM KCl. The buffer pH was 7.1. The test compound in DMSO solution was added to the buffer and mixed by a plate shaker for 7.5 minutes. The final concentration of DMSO introduced into the assay was 0.25%.
Glucokinase was added to the buffer mixture to initiate the reaction in the presence and absence of compound. The reaction was monitored by absorbance at 340 nm due to the depletion of NADH. The initial reaction velocity was measured by the slope of a linear time course of 0-300 seconds. The percentage of activation was calculated by the following equation:
% Activation=(Va/Vo−1)×100;
wherein each of Va and Vo is defined as the initial reaction velocity in the presence and absence of the tested compound, respectively.
To determine the EC50 (half maximal effective concentration) and % maximum activation, compounds were serially diluted in DMSO by 3-fold. The GK activities were measured as a function of compound concentrations. The data were fitted to the equation below to obtain the EC50 and % max activation values:
Va/Vo=1+(% max activation/100)/(1+EC50/compound concentration)

| SMILES | Emax [%] | EC50 [nM] |
| --- | --- | --- |
| Cc1cnc(NC(=O)[C@H](CC2CCCC2)n2ccc(C(F)(F)F)cc2=O)cn1 [Example 1, (S)-3-cyclopentyl-N-(5-methylpyrazin-2-yl)-2-(2-oxo-4-(trifluoromethyl)pyridin-1(2H)-yl)propanamide] | 76 to 100 | 5000 to 10500 |
| Cc1ccc(NC(=O)[C@H](CC2CCCC2)n2cccc(C(F)(F)F)c2=O)nc1 [Example 2, (S)-3-cyclopentyl-N-(5-methylpyridin-2-yl)-2-(2-oxo-3-(trifluoromethyl)pyridin-1(2H)-yl)propanamide] | 0 | > 100000 |
| Cc1ccc(NC(=O)[C@H](CC2CCCC2)n2ccc(C(F)(F)F)cc2=O)nc1 [Example 3, (S)-3-cyclopentyl-N-(5-methylpyridin-2-yl)-2-(2-oxo-4-(trifluoromethyl)pyridin-1(2H)-yl)propanamide] | 55 to 79 | 1000 to 2500 |
| Cn1ccc(NC(=O)[C@H](CC2CCCC2)n2ccc(C(F)(F)F)cc2=O)n1 [Example 4, (S)-3-cyclopentyl-N-(1-methyl-1H-pyrazol-3-yl)-2-(2-oxo-4-(trifluoromethyl)pyridin-1(2H)-yl)propanamide] | 72 to 106 | 4600 to 22400 |
| Cc1cnc(NC(=O)[C@H](CC2CCCC2)n2cccc(C(F)(F)F)c2=O)cn1 [Example 5, (S)-3-cyclopentyl-N-(5-methylpyrazin-2-yl)-2-(2-oxo-3-(trifluoromethyl)pyridin-1(2H)-yl)propanamide] | 0 | > 100000 |
| Cc1ccc(NC(=O)[C@H](CC2CCCC2)n2cc(C(F)(F)F)ccc2=O)nc1 [Example 6, (S)-3-cyclopentyl-N-(5-methylpyridin-2-yl)-2-(2-oxo-5-(trifluoromethyl)pyridin-1(2H)-yl)propanamide] | 88 to 105 | 200 to 800 |
| Cc1cnc(NC(=O)[C@H](CC2CCCC2)n2cc(C(F)(F)F)ccc2=O)cn1 [Example 7, (S)-3-cyclopentyl-N-(5-methylpyrazin-2-yl)-2-(2-oxo-5-(trifluoromethyl)pyridin-1(2H)-yl)propanamide] | 118 to 152 | 1600 to 3700 |
| O=C(Nc1cnccn1)[C@H](CC1CCCC1)n1cc(C(F)(F)F)ccc1=O [Example 8, (S)-3-cyclopentyl-2-(2-oxo-5-(trifluoromethyl)pyridin-1(2H)-yl)-N-(pyrazin-2-yl)propanamide] | 110 to 128 | 1700 to 3200 |
| O=C(Nc1ccncn1)[C@H](CC1CCCC1)n1cc(C(F)(F)F)ccc1=O [Example 9, (S)-3-cyclopentyl-2-(2-oxo-5-(trifluoromethyl)pyridin-1(2H)-yl)-N-(pyrimidin-4-yl)propanamide] | 95 to 106 | 1100 to 1400 |
| CCn1ccc(NC(=O)[C@H](CC2CCCC2)n2cc(C(F)(F)F)ccc2=O)n1 [Example 10, (S)-3-cyclopentyl-N-(1-ethyl-1H-pyrazol-3-yl)-2-(2-oxo-5-(trifluoromethyl)pyridin-1(2H)-yl)propanamide] | 121 to 148 | 1500 to 2100 |
| O=C(Nc1ccn(Cc2ccccc2)n1)[C@H](CC1CCCC1)n1cc(C(F)(F)F)ccc1=O [Example 11, (S)—N-(1-benzyl-1H-pyrazol-3-yl)-3-cyclopentyl-2-(2-oxo-5-(trifluoromethyl)pyridin-1(2H)-yl)propanamide] | 108 to 141 | 700 to 1300 |
| O=C(Nc1ncccn1)[C@H](CC1CCCC1)n1cc(C(F)(F)F)ccc1=O [Example 12, (S)-3-cyclopentyl-2-(2-oxo-5-(trifluoromethyl)pyridin-1(2H)-yl)-N-(pyrimidin-2-yl)propanamide] | 109 to 110 | 13600 to 20800 |

More lines, now with the values ahead:

| Emax [%] | EC50 [nM] | SMILES |
| --- | --- | --- |
| 106 | 14000 | O=C(Nc1cnccn1)[C@H](CC1CCCC1)n1ccc(C(F)(F)F)cc1=O [Example 13, (S)-3-cyclopentyl-2-(2-oxo-4-(trifluoromethyl)pyridin-1(2H)-yl)-N-(pyrazin-2-yl)propanamide] |
| 58 | 5800 | O=C(Nc1ccncn1)[C@H](CC1CCCC1)n1ccc(C(F)(F)F)cc1=O [Example 14, (S)-3-cyclopentyl-2-(2-oxo-4-(trifluoromethyl)pyridin-1(2H)-yl)-N-(pyrimidin-4-yl)propanamide] |
| 92 | 9400 | CCn1ccc(NC(=O)[C@H](CC2CCCC2)n2ccc(C(F)(F)F)cc2=O)n1 [Example 15, (S)-3-cyclopentyl-N-(1-ethyl-1H-pyrazol-3-yl)-2-(2-oxo-4-(trifluoromethyl)pyridin-1(2H)-yl)propanamide] |
| 125 | 2500 | Cn1ccc(NC(=O)[C@H](CC2CCCC2)n2cc(C(F)(F)F)ccc2=O)n1 [Example 16, (S)-3-cyclopentyl-N-(1-methyl-1H-pyrazol-3-yl)-2-(2-oxo-5-(trifluoromethyl)pyridin-1(2H)-yl)propanamide] |
| 57 | 400 | O=C(Nc1ccc(C(F)(F)F)cn1)[C@H](CC1CCCC1)n1cc(C(F)(F)F)ccc1=O [Example 17, (S)-3-cyclopentyl-2-(2-oxo-5-(trifluoromethyl)pyridin-1(2H)-yl)-N-(5-(trifluoromethyl)pyridin-2-yl)propanamide] |
| 103 | 9300 | O=C(Nc1ccon1)[C@H](CC1CCCC1)n1cc(C(F)(F)F)ccc1=O [Example 18, (S)-3-cyclopentyl-N-(isoxazol-3-yl)-2-(2-oxo-5-(trifluoromethyl)pyridin-1(2H)-yl)propanamide] |
| 89 | 500 | O=C(Nc1ccc2ccccc2n1)[C@H](CC1CCCC1)n1cc(C(F)(F)F)ccc1=O [Example 19, (S)-3-cyclopentyl-2-(2-oxo-5-(trifluoromethyl)pyridin-1(2H)-yl)-N-(quinolin-2-yl)propanamide] |
| 114 | 1200 | COc1cnc(NC(=O)[C@H](CC2CCCC2)n2cc(C(F)(F)F)ccc2=O)cn1 [Example 20, (S)-3-cyclopentyl-N-(5-methoxypyrazin-2-yl)-2-(2-oxo-5-(trifluoromethyl)pyridin-1(2H)-yl)propanamide] |
| 113 | 300 | O=C(Nc1ccccn1)[C@H](CC1CCCC1)n1cc(C(F)(F)F)ccc1=O [Example 21, (S)-3-cyclopentyl-2-(2-oxo-5-(trifluoromethyl)pyridin-1(2H)-yl)-N-(pyridin-2-yl)propanamide] |
| 130 | 20200 | Cc1cnc(NC(=O)[C@H](CC2CCCC2)n2cnc(C(F)(F)F)cc2=O)cn1 [Example 22, (S)-3-cyclopentyl-N-(5-methylpyrazin-2-yl)-2-(6-oxo-4-(trifluoromethyl)pyrimidin-1(6H)-yl)propanamide] |
| 77 | 2600 | Cc1ccc(NC(=O)[C@H](CC2CCCC2)n2cnc(C(F)(F)F)cc2=O)nc1 [Example 23, (S)-3-cyclopentyl-N-(5-methylpyridin-2-yl)-2-(6-oxo-4-(trifluoromethyl)pyrimidin-1(6H)-yl)propanamide] |
| 106 | 27100 | Cn1ccc(NC(=O)[C@H](CC2CCCC2)n2cnc(C(F)(F)F)cc2=O)n1 [Example 24, (S)-3-cyclopentyl-N-(1-methyl-1H-pyrazol-3-yl)-2-(6-oxo-4-(trifluoromethyl)pyrimidin-1(6H)-yl)propanamide] |
| 84 | 2900 | CCOC(=O)Cc1cnc(NC(=O)[C@H](CC2CCCC2)n2cc(C(F)(F)F)ccc2=O)s1 [Example 25, (S)-ethyl 2-(2-(3-cyclopentyl-2-(2-oxo-5-(trifluoromethyl)pyridin-1(2H)-yl)propanamido)thiazol-5-yl)acetate] |
| 116 | 11100 | O=C(O)Cc1cnc(NC(=O)[C@H](CC2CCCC2)n2cc(C(F)(F)F)ccc2=O)s1 [Example 26, (S)-2-(2-(3-cyclopentyl-2-(2-oxo-5-(trifluoromethyl)pyridin-1(2H)-yl)propanamido)thiazol-5-yl)acetic acid mono acetic acid salt] |
| 84 | 200 | COC(=O)c1ccc(NC(=O)[C@H](CC2CCCC2)n2cc(C(F)(F)F)ccc2=O)nc1 [Example 27, (S)-methyl 6-(3-cyclopentyl-2-(2-oxo-5-(trifluoromethyl)pyridin-1(2H)-yl)propanamido)nicotinate] |
